Consider nine compounds from PubChem BioAssay (NCI).

SMILES strings stand for the structures.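 Where inhibition never reached the appropriate level, the endpoint shown equals the highest concentration tested. Otherwise, values were interpolated linearly from a five-concentration, 48-hour dose response in 96-well plates. At the TGI there is no net growth.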

Some test systems named below: BT-549 breast; COLO 205 colon; HOP-92 NSCLC; K-562 leukemia; MALME-3M melanoma; NCI-H23 lung; OVCAR-4 ovarian; PC-3 prostate; RPMI-8226 leukemia; SF-295 CNS; SK-MEL-2 melanoma; SN12C renal; T-47D breast; U251 CNS; UACC-62 melanoma; CCRF-CEM leukemia; KM12 colon; RXF 393 renal.
Holding throughout (test): NCI tumour cell line growth inhibition, 48 h

Consider `c1ccc(C2OCC(OC3CCCCO3)CO2)cc1` (stereo unspecified), for which the TGI in the experiment on BT-549 breast, with COLO 205 colon, with HOP-92 NSCLC, with K-562 leukemia, in the experiment with MALME-3M melanoma and with NCI-H23 lung was greater than 100 µM throughout. Moreover, the TGI in the experiment on OVCAR-4 ovarian, with PC-3 prostate, in the experiment with RPMI-8226 leukemia, in the experiment with SF-295 CNS, in the experiment with SK-MEL-2 melanoma and in the experiment on SN12C renal was greater than 100 µM throughout. In addition, the TGI in the experiment on T-47D breast, in the experiment with U251 CNS and in the experiment on UACC-62 melanoma was greater than 100 µM throughout.

As to `Cc1ccc(S(=O)(=O)Nn2c(S)c(C#N)c(-c3ccc([N+](=O)[O-])cc3)c(C#N)c2=O)cc1`, the TGI in the experiment with BT-549 breast was 29.6 µM; with CCRF-CEM leukemia it was 52.6 µM; in the experiment on COLO 205 colon, 98.3 µM; in the experiment on HOP-92 NSCLC it was greater than 100 µM; in the experiment with K-562 leukemia, 53.2 µM; with KM12 colon, greater than 100 µM. Moreover, the TGI is greater than 100 µM in the experiment on MALME-3M melanoma; greater than 100 µM with OVCAR-4 ovarian; greater than 100 µM with PC-3 prostate; 37.8 µM with RPMI-8226 leukemia; greater than 100 µM in the experiment on RXF 393 renal; greater than 100 µM in the experiment on SF-295 CNS. Also, the TGI was 80.1 µM in the experiment on SK-MEL-2 melanoma, 37.3 µM in the experiment on SN12C renal, 98 µM with U251 CNS and 98.2 µM in the experiment with UACC-62 melanoma.

Turning to `Cc1ccc(-c2c(C#N)c(N)nc3c2CCS(=O)(=O)c2ccccc2-3)cc1`, the TGI in the experiment on BT-549 breast, in the experiment on COLO 205 colon, in the experiment with HOP-92 NSCLC, in the experiment on K-562 leukemia, with KM12 colon and in the experiment with MALME-3M melanoma was greater than 100 µM throughout. Moreover, the TGI in the experiment with NCI-H23 lung, in the experiment with OVCAR-4 ovarian, in the experiment with PC-3 prostate, in the experiment with RPMI-8226 leukemia, in the experiment on SK-MEL-2 melanoma and with SN12C renal was greater than 100 µM each time. Moreover, the TGI with T-47D breast, with U251 CNS and in the experiment on UACC-62 melanoma was greater than 100 µM in each case.

As to `O=C(Cc1ccccc1)NNc1nc(NNC(=O)c2ccncc2)nc(Nc2cccc(Cl)c2)n1`, the TGI in the experiment with BT-549 breast, with CCRF-CEM leukemia, in the experiment on COLO 205 colon, in the experiment on HOP-92 NSCLC, with K-562 leukemia and with KM12 colon was greater than 10 µM throughout. The TGI in the experiment with MALME-3M melanoma, in the experiment on NCI-H23 lung, with OVCAR-4 ovarian, in the experiment with RPMI-8226 leukemia, in the experiment with SN12C renal and in the experiment with T-47D breast was greater than 10 µM each time. In addition, the TGI in the experiment on U251 CNS and in the experiment with UACC-62 melanoma was greater than 10 µM each time.

Regarding `CCOc1ncn(-c2ccc(NC(=S)NC34CC5CC(CC(C5)C3)C4)cc2)n1`, the TGI in the experiment on BT-549 breast was greater than 100 µM; in the experiment on CCRF-CEM leukemia it was greater than 100 µM; with COLO 205 colon, greater than 100 µM; in the experiment on HOP-92 NSCLC, 60.6 µM; in the experiment on K-562 leukemia it was greater than 100 µM; with KM12 colon it was greater than 100 µM. Also, the TGI in the experiment on NCI-H23 lung, in the experiment with OVCAR-4 ovarian, in the experiment on PC-3 prostate, in the experiment on RPMI-8226 leukemia, with SF-295 CNS and in the experiment with SN12C renal was greater than 100 µM in each case. The TGI with T-47D breast and in the experiment with UACC-62 melanoma was greater than 100 µM each time.

In the case of `CCOC(=O)C1(C/C=C\CBr)CCCCCCCCCCC1=O` (stereo unspecified), the TGI with BT-549 breast is 31.7 µM; in the experiment on COLO 205 colon it was 33.7 µM; in the experiment on K-562 leukemia, 20.2 µM; in the experiment with KM12 colon, 28.8 µM; in the experiment on MALME-3M melanoma, 19.1 µM; with NCI-H23 lung it was 26.2 µM. In addition, the TGI with OVCAR-4 ovarian is 27.4 µM; in the experiment on PC-3 prostate, 25.1 µM; in the experiment with RPMI-8226 leukemia, 9.02 µM; with RXF 393 renal, 25.4 µM; in the experiment on SF-295 CNS, 31.7 µM; in the experiment on SK-MEL-2 melanoma it was 36.5 µM. Besides, the TGI in the experiment on SN12C renal was 28.4 µM; in the experiment with T-47D breast it was 29.7 µM; in the experiment on U251 CNS, 26.1 µM; in the experiment with UACC-62 melanoma, 31.9 µM.

`O=C(CCCN1CCC2(CC1)CC(=O)N(N1CCCCCC1)C2=O)c1ccc(F)cc1`: the TGI in the experiment on BT-549 breast, in the experiment on CCRF-CEM leukemia, in the experiment with COLO 205 colon, in the experiment with K-562 leukemia, in the experiment with MALME-3M melanoma and with NCI-H23 lung was greater than 100 µM throughout. Moreover, the TGI is greater than 100 µM with OVCAR-4 ovarian; greater than 100 µM with PC-3 prostate; greater than 100 µM in the experiment on RPMI-8226 leukemia; 97.9 µM in the experiment on RXF 393 renal; 63.2 µM in the experiment on SF-295 CNS; greater than 100 µM in the experiment on SK-MEL-2 melanoma. Further, the TGI in the experiment with SN12C renal, in the experiment on T-47D breast, in the experiment on U251 CNS and with UACC-62 melanoma was greater than 100 µM each time.

Consider `CC1(C)OC(=O)C2(O1)C(=O)C1CCCCC12` (stereo unspecified), for which the TGI with BT-549 breast, in the experiment on CCRF-CEM leukemia, with COLO 205 colon, in the experiment with K-562 leukemia, in the experiment with KM12 colon and in the experiment on MALME-3M melanoma was greater than 100 µM in each case. The TGI with NCI-H23 lung, in the experiment with OVCAR-4 ovarian, in the experiment on PC-3 prostate, in the experiment with RPMI-8226 leukemia, in the experiment with RXF 393 renal and in the experiment with SF-295 CNS was greater than 100 µM in each case. Also, the TGI in the experiment on SK-MEL-2 melanoma, in the experiment with SN12C renal, in the experiment on T-47D breast, with U251 CNS and in the experiment with UACC-62 melanoma was greater than 100 µM each time.

Take `NC(CCCCNC(=O)CNC(=O)OCc1ccccc1)C(=O)NC(CCCCNC(=O)CNC(=O)OCc1ccccc1)C(=O)NC(CCCCNC(=O)CNC(=O)OCc1ccccc1)C(=O)NC(CCCCNC(=O)CNC(=O)OCc1ccccc1)C(=O)NC(CCCCNC(=O)CNC(=O)OCc1ccccc1)C(=O)NC(CCCCNC(=O)CNC(=O)OCc1ccccc1)C(=O)O` (stereo unspecified): the TGI in the experiment on BT-549 breast, in the experiment on CCRF-CEM leukemia, with K-562 leukemia, in the experiment on MALME-3M melanoma, with NCI-H23 lung and with OVCAR-4 ovarian was greater than 75 µM each time. Also, the TGI in the experiment on PC-3 prostate, in the experiment on RPMI-8226 leukemia, in the experiment with SK-MEL-2 melanoma, in the experiment on SN12C renal, with T-47D breast and in the experiment with U251 CNS was greater than 75 µM in each case. Also, the TGI in the experiment with UACC-62 melanoma is greater than 75 µM.
